Assay results taken from ChEMBL document CHEMBL1201862, “PubChem BioAssay data set” (2004).
Calls of active or inactive are those of the source.

Columns and labels:
[1] = molecular target: T1, Mannose-6-phosphate isomerase (Homo sapiens, UniProt P34949); assay: MPI enzyme activity inhibition – biochemical, fluorescence intensity, coupled assay, primary screen (AID 1209)
T1 sequence (P34949 whole entry): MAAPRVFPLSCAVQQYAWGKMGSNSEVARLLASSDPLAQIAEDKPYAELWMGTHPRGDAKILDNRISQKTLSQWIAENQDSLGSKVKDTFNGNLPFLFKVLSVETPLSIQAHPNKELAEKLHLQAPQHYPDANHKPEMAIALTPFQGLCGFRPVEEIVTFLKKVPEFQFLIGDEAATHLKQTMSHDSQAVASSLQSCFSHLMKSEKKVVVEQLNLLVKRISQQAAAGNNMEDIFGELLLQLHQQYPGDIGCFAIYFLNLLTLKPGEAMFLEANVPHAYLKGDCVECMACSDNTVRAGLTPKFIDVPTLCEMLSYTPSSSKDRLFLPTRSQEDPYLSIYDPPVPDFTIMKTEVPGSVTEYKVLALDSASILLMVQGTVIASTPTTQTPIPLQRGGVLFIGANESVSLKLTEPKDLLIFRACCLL

[2] = luciferase reporter signal suppression in cells – H4 neuroglioma cells, luminescence, dose response (AID 1990); format: functional, cell-based
[3] = Luminescence Cell-Based Dose Response HTS to Identify Inhibitors of 5'UTR Stem-Loop Driven Prion Protein mRNA Translation in H4 Neuroglioblastoma Cells. [Related pubchem assays: 1827 (Project Summary), 1813 (Primary HTS)]; format: functional
[4] = DRD fibroblast viability loss – cell-based, non-viral oncogenic, luminescence, dose response (AID 1934); format: functional; details: Homo sapiens
[5] = alpha-synuclein stem-loop translation blockers – luminescence, H4 neuroglioblastoma cells, dose confirmation, confirmation (AID 2454); format: functional, cell-based;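 also: H4 neuroglioblastoma cells carrying an alpha-synuclein 5'UTR luciferase reporter; potency for inhibition of the luciferase signal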
[6] = HEK-293T viability loss after treatment – luminescence, T-cell screen hits, cytotoxicity control for TCR NF-kB inhibitor project, dose response (AID 489026); format: functional, cell-based;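 also: cells exposed to compound about 14 hours before the viability readout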
BJ [7] = assay: BJ-TERT-LT-ST fibroblast viability loss – cell-based, RAS-independent, luminescence, dose response (AID 1935); format: functional; details: Homo sapiens;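 also: BJ fibroblasts immortalized with TERT plus LT and ST oncogenes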
[8] = alpha-synuclein stem-loop luciferase translation blockers – H4 neuroglioma cells, luminescence, confirmation (AID 1988); format: functional, cell-based
cells = format: functional, cell-based
BJ [9] = assay: BJ-TERT fibroblast viability loss – cell-based, RAS-independent, luminescence, dose response (AID 1933); format: functional; details: Homo sapiens
[10] = luciferase reporter signal reduction – luminescence, H4-C neuroglioblastoma cells, dose response (AID 2458); format: functional, cell-based;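 also: H4 neuroglioblastoma cells stably carrying a luciferase reporter gene fusion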
BJ [11] = assay: cells; format: functional, cell-based; details: Homo sapiens
Ion channel NompC = Ion channel NompC (Danio rerio, UniProt Q7T1G6); assay: Fluorescence counterscreen assay for TRPML3 agonists: dose response cell-based high-throughput screening assay to identify agonists of the transient receptor potential channel N1 (TRPN1). [Related pubchem assays: 1526, 1424, 1448 ]; format: functional
Chain of Ion channel NompC (Q7T1G6 whole entry): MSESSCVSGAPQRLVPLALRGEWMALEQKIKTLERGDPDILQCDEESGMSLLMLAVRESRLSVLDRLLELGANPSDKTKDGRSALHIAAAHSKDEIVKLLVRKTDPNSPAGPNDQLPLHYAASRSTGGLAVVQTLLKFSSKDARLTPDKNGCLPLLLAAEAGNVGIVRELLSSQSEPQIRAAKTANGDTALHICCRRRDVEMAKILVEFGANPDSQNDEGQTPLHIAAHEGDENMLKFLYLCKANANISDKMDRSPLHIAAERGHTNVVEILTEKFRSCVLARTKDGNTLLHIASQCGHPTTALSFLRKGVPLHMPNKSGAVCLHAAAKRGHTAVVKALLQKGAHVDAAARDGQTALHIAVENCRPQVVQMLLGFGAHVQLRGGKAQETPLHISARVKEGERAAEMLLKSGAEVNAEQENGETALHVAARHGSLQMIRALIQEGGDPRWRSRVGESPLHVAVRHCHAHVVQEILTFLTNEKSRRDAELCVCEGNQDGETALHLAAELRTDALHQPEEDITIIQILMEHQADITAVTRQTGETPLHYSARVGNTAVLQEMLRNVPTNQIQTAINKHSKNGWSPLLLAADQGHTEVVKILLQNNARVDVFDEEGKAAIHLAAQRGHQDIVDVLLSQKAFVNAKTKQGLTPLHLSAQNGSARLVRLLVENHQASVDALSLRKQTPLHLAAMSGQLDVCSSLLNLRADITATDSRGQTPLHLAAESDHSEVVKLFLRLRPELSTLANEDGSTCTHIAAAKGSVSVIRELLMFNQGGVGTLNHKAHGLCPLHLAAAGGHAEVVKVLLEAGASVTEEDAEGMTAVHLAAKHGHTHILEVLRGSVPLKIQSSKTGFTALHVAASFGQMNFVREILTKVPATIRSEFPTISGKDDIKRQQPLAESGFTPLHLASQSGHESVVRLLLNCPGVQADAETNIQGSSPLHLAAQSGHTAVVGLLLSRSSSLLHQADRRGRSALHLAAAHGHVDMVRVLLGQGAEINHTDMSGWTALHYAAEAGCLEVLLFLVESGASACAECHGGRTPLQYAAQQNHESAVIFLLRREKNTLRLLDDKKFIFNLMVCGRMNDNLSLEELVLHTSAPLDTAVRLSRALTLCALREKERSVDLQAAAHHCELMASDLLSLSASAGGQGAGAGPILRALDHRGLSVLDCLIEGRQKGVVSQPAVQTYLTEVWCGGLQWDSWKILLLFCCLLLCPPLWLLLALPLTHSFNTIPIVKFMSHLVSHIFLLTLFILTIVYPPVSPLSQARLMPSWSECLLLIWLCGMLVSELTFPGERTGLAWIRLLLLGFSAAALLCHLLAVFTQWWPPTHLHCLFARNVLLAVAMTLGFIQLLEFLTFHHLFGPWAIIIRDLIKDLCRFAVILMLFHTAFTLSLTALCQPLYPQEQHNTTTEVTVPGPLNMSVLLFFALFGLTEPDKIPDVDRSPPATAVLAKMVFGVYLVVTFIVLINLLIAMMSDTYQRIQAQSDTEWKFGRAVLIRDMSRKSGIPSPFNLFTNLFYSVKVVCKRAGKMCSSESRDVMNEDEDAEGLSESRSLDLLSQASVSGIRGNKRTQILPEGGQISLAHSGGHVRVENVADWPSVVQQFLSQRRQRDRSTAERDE

Mucolipin-3 = molecular target: T2, Mucolipin-3 (Homo sapiens, UniProt Q8TDD5); assay: Dose response cell-based high-throughput screening assay for agonists of the transient receptor potential channel ML3 (TRPML3). [Related pubchem assays: 1526, 1424, 1448 ]; format: functional
T2 sequence (Q8TDD5 whole entry): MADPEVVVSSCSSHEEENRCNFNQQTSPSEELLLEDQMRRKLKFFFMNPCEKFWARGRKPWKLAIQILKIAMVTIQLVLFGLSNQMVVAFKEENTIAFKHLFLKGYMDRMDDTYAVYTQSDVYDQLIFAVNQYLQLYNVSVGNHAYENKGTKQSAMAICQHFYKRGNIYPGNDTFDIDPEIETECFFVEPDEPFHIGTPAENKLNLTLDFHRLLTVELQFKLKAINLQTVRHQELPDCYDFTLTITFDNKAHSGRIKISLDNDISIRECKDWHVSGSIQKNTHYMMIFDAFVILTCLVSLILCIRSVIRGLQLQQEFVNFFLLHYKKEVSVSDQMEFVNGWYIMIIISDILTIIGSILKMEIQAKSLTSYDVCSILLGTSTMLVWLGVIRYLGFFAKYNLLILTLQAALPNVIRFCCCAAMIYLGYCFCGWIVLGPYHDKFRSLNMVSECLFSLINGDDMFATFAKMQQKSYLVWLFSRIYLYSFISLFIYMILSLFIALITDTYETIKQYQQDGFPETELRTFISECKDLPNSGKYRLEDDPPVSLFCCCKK

[12] = molecular target: T3, Sentrin-specific protease 8 (Homo sapiens, UniProt Q96LD8); format: functional;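 also: luminescence read-out of SENP8 inhibition, dose-response confirmation following an ultra-high-throughput screen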
T3 sequence (Q96LD8 whole entry): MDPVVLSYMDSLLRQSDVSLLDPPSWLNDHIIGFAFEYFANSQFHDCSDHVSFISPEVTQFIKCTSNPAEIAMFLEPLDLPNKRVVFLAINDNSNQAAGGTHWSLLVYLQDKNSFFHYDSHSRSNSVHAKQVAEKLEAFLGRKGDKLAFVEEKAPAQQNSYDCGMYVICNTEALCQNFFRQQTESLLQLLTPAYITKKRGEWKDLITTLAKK

Caspase-3 = molecular target: T4, Caspase-3 (Homo sapiens, UniProt P42574); format: functional;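 also: Dose-response selectivity test against caspase-3 for candidate inhibitors of sentrin-specific proteases (SENPs)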
T4 sequence (P42574 whole entry): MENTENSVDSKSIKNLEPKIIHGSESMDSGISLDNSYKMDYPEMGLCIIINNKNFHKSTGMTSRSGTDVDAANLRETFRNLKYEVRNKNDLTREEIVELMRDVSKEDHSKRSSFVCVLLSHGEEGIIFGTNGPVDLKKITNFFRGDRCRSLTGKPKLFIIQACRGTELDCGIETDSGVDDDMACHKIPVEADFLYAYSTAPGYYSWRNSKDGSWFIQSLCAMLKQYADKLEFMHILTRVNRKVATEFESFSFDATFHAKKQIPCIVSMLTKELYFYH

[13] = molecular target: T5, Sentrin-specific protease 7 (Homo sapiens, UniProt Q9BQF6); format: functional;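 also: Luminescence-based dose-response confirmation of ultra-high-throughput screening hits, measuring inhibition of SENP7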
T5 sequence (Q9BQF6 whole entry): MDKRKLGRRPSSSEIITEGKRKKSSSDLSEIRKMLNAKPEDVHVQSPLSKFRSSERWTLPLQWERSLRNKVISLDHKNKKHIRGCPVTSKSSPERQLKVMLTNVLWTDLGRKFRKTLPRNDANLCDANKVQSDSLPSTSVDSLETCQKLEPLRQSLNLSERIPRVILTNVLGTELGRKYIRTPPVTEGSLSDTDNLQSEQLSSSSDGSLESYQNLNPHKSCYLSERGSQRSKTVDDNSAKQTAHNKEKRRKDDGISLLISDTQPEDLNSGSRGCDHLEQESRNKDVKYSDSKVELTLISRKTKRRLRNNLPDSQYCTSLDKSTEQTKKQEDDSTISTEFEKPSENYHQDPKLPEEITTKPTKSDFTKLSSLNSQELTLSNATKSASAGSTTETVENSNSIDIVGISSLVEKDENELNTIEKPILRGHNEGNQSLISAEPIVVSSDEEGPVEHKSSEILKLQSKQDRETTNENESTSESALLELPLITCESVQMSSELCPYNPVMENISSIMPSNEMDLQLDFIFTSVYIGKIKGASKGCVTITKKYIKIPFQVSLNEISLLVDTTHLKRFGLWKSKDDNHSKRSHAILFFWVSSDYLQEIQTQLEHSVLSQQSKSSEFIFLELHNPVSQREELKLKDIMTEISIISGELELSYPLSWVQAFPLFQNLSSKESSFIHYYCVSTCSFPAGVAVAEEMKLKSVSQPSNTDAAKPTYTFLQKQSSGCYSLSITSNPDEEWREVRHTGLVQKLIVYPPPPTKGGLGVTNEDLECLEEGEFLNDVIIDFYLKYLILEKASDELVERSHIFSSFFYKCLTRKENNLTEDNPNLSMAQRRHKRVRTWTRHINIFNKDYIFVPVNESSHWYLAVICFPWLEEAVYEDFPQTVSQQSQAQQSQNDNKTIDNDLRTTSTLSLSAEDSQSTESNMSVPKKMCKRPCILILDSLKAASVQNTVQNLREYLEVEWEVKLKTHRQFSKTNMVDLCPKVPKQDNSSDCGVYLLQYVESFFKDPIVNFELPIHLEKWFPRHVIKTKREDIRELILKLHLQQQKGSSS

[14] = molecular target: T6, Sentrin-specific protease 6 (Homo sapiens, UniProt Q9GZR1); format: functional;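 also: Luminescence-based dose-response confirmatory assay of SENP6 inhibition, following up an ultra-high-throughput screen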
T6 sequence (Q9GZR1 whole entry): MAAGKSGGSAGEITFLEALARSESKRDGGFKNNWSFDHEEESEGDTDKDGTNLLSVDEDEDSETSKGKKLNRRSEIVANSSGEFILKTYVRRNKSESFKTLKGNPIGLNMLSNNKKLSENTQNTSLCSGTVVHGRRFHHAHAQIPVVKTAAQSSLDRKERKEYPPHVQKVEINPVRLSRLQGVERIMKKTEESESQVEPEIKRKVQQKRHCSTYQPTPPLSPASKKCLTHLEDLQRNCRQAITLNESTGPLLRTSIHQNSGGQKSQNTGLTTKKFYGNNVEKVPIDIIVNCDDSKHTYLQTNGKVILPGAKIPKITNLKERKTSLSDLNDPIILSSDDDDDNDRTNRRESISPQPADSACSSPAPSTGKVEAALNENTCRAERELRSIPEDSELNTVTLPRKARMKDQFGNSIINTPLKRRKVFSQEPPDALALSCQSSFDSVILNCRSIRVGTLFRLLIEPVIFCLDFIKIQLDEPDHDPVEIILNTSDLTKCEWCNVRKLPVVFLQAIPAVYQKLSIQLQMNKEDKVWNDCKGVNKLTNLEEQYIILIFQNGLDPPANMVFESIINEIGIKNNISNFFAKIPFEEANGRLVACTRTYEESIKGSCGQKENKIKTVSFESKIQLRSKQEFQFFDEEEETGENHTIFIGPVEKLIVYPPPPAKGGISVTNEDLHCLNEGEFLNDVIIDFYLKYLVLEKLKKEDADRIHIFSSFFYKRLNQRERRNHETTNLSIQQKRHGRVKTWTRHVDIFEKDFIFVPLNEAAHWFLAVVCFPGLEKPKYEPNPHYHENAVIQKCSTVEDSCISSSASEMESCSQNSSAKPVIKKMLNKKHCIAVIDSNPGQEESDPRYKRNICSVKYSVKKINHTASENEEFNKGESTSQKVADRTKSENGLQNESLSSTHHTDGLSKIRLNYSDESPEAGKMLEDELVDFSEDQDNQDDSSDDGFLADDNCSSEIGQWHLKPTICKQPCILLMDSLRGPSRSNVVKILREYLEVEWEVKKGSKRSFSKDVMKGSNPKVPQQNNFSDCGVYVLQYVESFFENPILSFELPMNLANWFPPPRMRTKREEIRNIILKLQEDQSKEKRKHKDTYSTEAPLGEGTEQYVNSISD

Prothrombin = Prothrombin (Homo sapiens, UniProt P00734); assay: Thrombin 1536 HTS Dose Response Confirmation. [Related pubchem assays: 1046 (Thrombin 1536 HTS; hits were confirmed in this assay)]; format: functional
[15] = molecular target: Peroxisome proliferator-activated receptor gamma/Nuclear receptor coactivator 2 (Homo sapiens, UniProt P37231); format: functional;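 also: agonist potency for raising coactivator recruitment to the receptor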
[16] = molecular target: Peroxisome proliferator-activated receptor gamma/Nuclear receptor coactivator 3 (Homo sapiens, UniProt P37231); format: functional;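 also: agonist potency for raising coactivator recruitment to the receptor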
Chain of Peroxisome proliferator-activated receptor gamma/Nuclear receptor coactivator 3 (P37231 whole entry): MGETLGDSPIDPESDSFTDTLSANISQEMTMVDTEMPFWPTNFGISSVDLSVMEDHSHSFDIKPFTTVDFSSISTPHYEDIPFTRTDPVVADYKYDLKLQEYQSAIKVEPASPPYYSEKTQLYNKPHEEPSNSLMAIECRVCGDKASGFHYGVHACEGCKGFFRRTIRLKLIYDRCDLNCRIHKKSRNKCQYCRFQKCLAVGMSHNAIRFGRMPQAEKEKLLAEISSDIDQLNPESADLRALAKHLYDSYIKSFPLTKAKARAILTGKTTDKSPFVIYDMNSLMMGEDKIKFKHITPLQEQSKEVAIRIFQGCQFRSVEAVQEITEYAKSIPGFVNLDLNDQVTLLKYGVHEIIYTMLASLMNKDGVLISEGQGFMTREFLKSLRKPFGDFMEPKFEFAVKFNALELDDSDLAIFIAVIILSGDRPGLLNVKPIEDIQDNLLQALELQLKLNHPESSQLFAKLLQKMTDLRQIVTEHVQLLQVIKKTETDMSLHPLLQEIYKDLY
Chain of Peroxisome proliferator-activated receptor gamma/Nuclear receptor coactivator 3 (Q9Y6Q9 whole entry, further chain): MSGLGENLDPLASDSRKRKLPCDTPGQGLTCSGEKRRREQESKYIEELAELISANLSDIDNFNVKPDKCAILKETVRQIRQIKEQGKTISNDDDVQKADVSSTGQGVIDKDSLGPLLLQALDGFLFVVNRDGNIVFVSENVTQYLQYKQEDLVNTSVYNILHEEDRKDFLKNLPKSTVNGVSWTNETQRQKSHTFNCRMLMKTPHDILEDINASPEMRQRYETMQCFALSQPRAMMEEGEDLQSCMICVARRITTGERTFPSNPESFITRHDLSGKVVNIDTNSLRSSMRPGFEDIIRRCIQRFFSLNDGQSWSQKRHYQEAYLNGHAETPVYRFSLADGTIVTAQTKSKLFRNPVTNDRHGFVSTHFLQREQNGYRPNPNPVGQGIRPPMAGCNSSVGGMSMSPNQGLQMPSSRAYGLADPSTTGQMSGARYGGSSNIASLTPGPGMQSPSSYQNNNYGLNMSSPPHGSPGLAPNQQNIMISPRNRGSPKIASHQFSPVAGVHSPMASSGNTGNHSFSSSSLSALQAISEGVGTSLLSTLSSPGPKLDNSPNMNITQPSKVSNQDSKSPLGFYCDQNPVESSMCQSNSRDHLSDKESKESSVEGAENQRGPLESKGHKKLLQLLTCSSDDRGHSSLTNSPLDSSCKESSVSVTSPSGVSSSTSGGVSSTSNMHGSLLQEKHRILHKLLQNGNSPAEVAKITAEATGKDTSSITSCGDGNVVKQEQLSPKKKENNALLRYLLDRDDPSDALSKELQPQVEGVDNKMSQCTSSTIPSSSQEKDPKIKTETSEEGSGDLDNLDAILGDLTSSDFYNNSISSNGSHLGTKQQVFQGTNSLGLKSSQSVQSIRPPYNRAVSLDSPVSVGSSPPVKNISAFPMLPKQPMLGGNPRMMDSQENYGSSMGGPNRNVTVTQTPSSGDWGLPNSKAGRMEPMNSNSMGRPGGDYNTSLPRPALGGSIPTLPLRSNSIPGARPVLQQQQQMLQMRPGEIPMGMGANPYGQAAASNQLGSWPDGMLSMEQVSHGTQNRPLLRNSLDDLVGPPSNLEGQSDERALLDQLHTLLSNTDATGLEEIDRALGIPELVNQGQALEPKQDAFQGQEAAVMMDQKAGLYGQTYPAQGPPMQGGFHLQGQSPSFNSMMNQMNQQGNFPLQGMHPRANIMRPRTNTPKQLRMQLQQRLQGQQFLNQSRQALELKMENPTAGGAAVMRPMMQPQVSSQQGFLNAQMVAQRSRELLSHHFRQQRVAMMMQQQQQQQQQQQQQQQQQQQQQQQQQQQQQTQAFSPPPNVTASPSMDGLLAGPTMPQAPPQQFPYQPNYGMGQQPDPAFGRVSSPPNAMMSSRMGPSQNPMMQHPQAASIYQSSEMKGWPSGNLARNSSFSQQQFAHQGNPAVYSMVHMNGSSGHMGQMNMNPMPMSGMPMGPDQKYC

[17] = molecular target: Peroxisome proliferator-activated receptor gamma/Nuclear receptor coactivator 1 (Homo sapiens, UniProt P37231); format: functional;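 also: agonist potency as compounds enhance coactivator SRC-1 recruitment to PPARgamma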
[18] = A Cell Based Secondary Assay To Explore Cytotoxicity of Compounds that Sensitize Mycobacterium Tuberculosis to Beta-Lactam Antibiotics.; format: functional
[19] = molecular target: Glyceraldehyde-3-phosphate dehydrogenase (Homo sapiens, UniProt P04406)
Chain of Glyceraldehyde-3-phosphate dehydrogenase (P04406 whole entry): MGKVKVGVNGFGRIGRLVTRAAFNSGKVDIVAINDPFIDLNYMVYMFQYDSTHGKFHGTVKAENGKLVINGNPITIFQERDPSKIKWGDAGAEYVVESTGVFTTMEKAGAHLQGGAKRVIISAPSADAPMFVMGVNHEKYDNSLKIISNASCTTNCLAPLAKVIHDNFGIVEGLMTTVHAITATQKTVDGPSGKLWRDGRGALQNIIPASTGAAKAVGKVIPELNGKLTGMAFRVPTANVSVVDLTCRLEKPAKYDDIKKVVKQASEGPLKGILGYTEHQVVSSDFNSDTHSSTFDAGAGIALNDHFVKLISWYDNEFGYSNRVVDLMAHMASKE

Cc1ccc(N2C(=O)CC(Sc3nc[nH]n3)C2=O)cc1C (stereo not drawn)
IC50 [1]: > 50 µM (not active)

C=CCOC(=O)c1[nH]c2c(c1C)C(=O)CC(c1ccco1)C2 (stereo not drawn)
EC50 [2]: 0.257 µM (active)
EC50 [3]: 0.19 µM (active)
EC50 [4]: 0.374 µM (active)
EC50 [5]: 0.822 µM (active)
IC50 [6]: > 80 µM (inactive)
EC50 (BJ [7]): 0.346 µM (inconclusive)
EC50 [8]: < 0.1 µM (active)
EC50 (cells): 1.29 µM (active)
EC50 (BJ [9]): 0.377 µM (inconclusive)
EC50 [10]: 0.598 µM (active)
EC50 (BJ [11]): 29.1 µM (inconclusive)

CCN(C1CCCCC1)S(=O)(=O)c1cc(C)ccc1OC
EC50 (Ion channel NompC): > 29.9 µM (not active)
EC50 (Mucolipin-3): 3.39 µM (active)

Cc1cccc(C(=O)Nc2sc(C)c(-c3ccccc3)c2C#N)c1
IC50 [12]: > 100 µM (inactive)
IC50 (Caspase-3): 38.5 µM (active)
IC50 [13]: 7.15 µM (active)
IC50 [14]: > 100 µM (inactive)
IC50 (Prothrombin): > 50 µM (not active)

COc1ccc(C(=O)/N=c2\sc3ccccc3n2C)cc1OC
EC50 [15]: > 79.4 µM (not active)
EC50 [16]: > 79.4 µM (not active)
EC50 [17]: > 79.4 µM (not active)

O=C1COc2ccc(C(=O)/C=C/c3ccccc3)cc2N1
CC50 [18]: 21.5 µM (active)

CCC(C)Nc1nc(N)c([N+](=O)[O-])c(NC2CCCCC2)n1 (stereo not drawn)
EC50 [2]: 13.2 µM (active)
EC50 [3]: < 0.1 µM (active)
EC50 [5]: > 12 µM (not active)
EC50 [8]: 9.77 µM (active)
EC50 (cells): > 12 µM (not active)
EC50 [10]: > 12 µM (not active)

CN(C)S(=O)(=O)N1CCN(c2cc(Cl)ccc2Cl)CC1
EC50 (Ion channel NompC): > 29.9 µM (not active)
EC50 (Mucolipin-3): 26.5 µM (not active)

N#Cc1ccccc1/C=N/Nc1nc(-c2ccccc2)c2cc(Br)ccc2n1
CC50 [18]: > 40 µM (active)

COc1cccc(/C=N/NC(=O)c2csc(-n3nc(C)cc3C(F)(F)F)n2)c1
EC50 [15]: > 79.4 µM (not active)
EC50 [16]: > 79.4 µM (not active)
EC50 [17]: > 79.4 µM (not active)

CSc1ccccc1NC(=O)Cn1c(-c2cscn2)nc2ccccc21
EC50 [15]: > 79.4 µM (not active)
EC50 [16]: > 79.4 µM (not active)
EC50 [17]: > 79.4 µM (not active)

CCC(Oc1cc(Cl)ccc1Cl)C(=O)NN1C(=O)C2C3CCC(C3=C(C)C)C2C1=O (stereo not drawn)
EC50 (Ion channel NompC): 23.7 µM (not active)
EC50 (Mucolipin-3): 3.99 µM (active)

N#Cc1ccc(/C=N/NC(=N)N)cc1
EC50 [15]: > 79.4 µM (not active)
EC50 [16]: > 79.4 µM (not active)
EC50 [17]: > 79.4 µM (not active)

Cc1cccc(N2C(=O)C(Cl)=C(N3CCN(Cc4ccccc4)CC3)C2=O)c1
IC50 [19]: > 50 µM (inconclusive)

O=c1[nH]c(/C=C/c2cccc(Br)c2)nc2ccccc12
CC50 [18]: 33.4 µM (active)

O=C(c1cc(-c2cc(F)c(Cl)cc2Cl)n[nH]1)N(CCO)CCO
IC50 [19]: > 10 µM (inconclusive)

CCCC(=O)Oc1c(S(=O)(=O)c2ccc(C)cc2)c(C)nn1C(C)(C)C
EC50 (Ion channel NompC): > 29.9 µM (not active)
EC50 (Mucolipin-3): 2.31 µM (active)
